For experiment [1], the target named is T1, human recombinant CD38 enzyme (Homo sapiens, UniProt P28907).
T1 construct: purchased R&D Systems H7006
T1 sequence (P28907 1-300): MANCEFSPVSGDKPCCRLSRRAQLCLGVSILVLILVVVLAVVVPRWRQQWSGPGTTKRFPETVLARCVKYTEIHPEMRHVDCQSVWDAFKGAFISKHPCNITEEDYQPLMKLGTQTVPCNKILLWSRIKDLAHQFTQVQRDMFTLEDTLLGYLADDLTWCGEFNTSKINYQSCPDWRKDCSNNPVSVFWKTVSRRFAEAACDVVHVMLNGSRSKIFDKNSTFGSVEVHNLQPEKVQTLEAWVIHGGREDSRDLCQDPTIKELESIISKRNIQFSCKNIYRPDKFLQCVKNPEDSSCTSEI
In words: Human recombinant enzyme assay (fluorimetric CD38 enzyme assay, ε-NAD substrate). Type of experiment: biochemical. The conditions noted are these: recombinant CD38 100 ng/ml, ε-NAD 100 µM, pH = 6.0, 37°C, reaction time 30 min; read-out: IC50 (nM) ENAD. The procedure:
Enzyme assay on human recombinant CD38 enzyme were performed in order to determine the in vitro potency of the newly synthesized compounds. IC50 values were determined for the test compounds and used to explore the structure-activity relationships (SAR).
(§1) N6-etheno-NAD (ε-NAD), a NAD analogue previously shown to be a convenient substrate of CD38 enzyme activity (Graeff et al. J. Biol. Chem. 269, pp 30260-30367, […]) was used to measure the activity of human recombinant CD38 and cell surface enzyme activity.
A fluorimetric CD38 enzyme assay was performed as described by Graeff et al. The reaction was started with 10 µl of N6-etheno-NAD (ε-NAD) substrate, final concentration 100 µM, in a final volume of 0.1 ml buffered with 50 mM HEPES, 0.05% BRIJ, pH = 6.0 containing 100 ng/ml recombinant CD38 (R&D Systems, H7006). Cleavage of ε-NAD, which causes a 10-fold fluorescence enhancement, was continuously followed at 37°C in a BMG Polarstar spectrofluorometer at an emission wavelength of 410 nm and an excitation of 300 nm, reaction time was 30 min. NADase activity was expressed as Δ relative fluorescence/min. The rate of enzyme reactions were compared in the presence and absence of inhibitor molecule, the IC50 values were calculated with Biostat Speed program.

Experiment [2] has as its target T2, natural cell surface human CD38 enzyme (Homo sapiens, UniProt P28907).
T2 construct: The A549 cells express active CD38 enzyme on the cell surface; endogenous in cells; host or cells: A549 human lung epithelial cells (ATCC CCL 185)
T2 sequence (P28907 1-300): T1 sequence (P28907 1-300)
As to the kind of experiment: Cell surface enzyme assay on A549 cells. Type of experiment: cell-based. Conditions: A549 human lung epithelial cells, pre-incubated 15 min, ε-NAD 100 µM, 60 min, pH=7.4. Here is the method:
A549 human lung epithelial cells were used as enzyme source. The A549 cells express active CD38 enzyme on the cell surface.
as §1
Type II-like human lung epithelial cells A 549 (ATCC CCL 185) were grown in RPMI 1640 medium supplemented with 10% fetal calf serum, 2mM 1-glutamine and penicillin/streptomycin 1% in a humidified incubator with an atmosphere of 95% air and 5% CO2 at 37 °C. At about 70-80% confluence, cells were detached with trypsin/EDTA solution to form a cell suspension and counted. Cell viability was higher as 95% using trypan blue dye. Cells were plated at a density of 500.000 cells/well (24 well plate), before 24 hours of starting the enzyme assay. The medium was removed and replaced by assay buffer (20 mM HEPES, pH=7.4 containing 140 mM NaCl, 5 mM KCl, 1 mM MgSO4 1 mM CaCl2, 1mM Na2HPO4, 5.5 mM glucose).
A549 cells (800.000/well, 500 µl) were pre-incubated in the presence and absence of inhibitors for 15 min before the addition of ε-NAD, final substrate concentration was 100 µM. After 60 min, the plate was centrifuged and 100 µl of supernatant was removed and measured fluorimetrically in BMG Polarstar spectrofluorimeter at an emission wavelength of 410 nm and an excitation of 300 nm. The mean difference in the fluorescence between reaction stopped at 0 and 60 min was used an arbitrary unit of NADase activity. The NADase activity in the absence and presence of inhibitors were compared and IC50 values were calculated.

By IC50 is commonly meant the point on the concentration scale where inhibition reaches its midpoint. For `CCCCc1ccc(N2C(=O)N/C(=C\c3ccncc3)C2=O)cc1` [Compound 24, 3-(4-Butyl-phenyl)-5-[1-pyridin-4-yl-meth-(Z)-ylidene]-imidazolidine-2,4-dione], the IC50 in experiment [1] turned out to be 80 nM; in experiment [2], 297 nM. On the same counts, the results for `O=C1N/C(=C\c2ccncc2)C(=O)N1c1ccc(I)cc1` [Compound 33, 3-(4-Iodo-phenyl)-5-[1-pyridin-4-yl-meth-(Z)-ylidene]-imidazolidine-2,4-dione] are 38 nM and 272 nM. Regarding `O=C1N/C(=C\c2ccncc2)C(=O)N1CC1CCOCC1` [Compound 56, 5-[1-Pyridin-4-yl-meth-(Z)-ylidene]-3-(tetrahydro-pyran-4-ylmethyl)-imidazolidine-2,4-dione], the figures for the IC50 in experiment [1] and in experiment [2] were 20 nM and 137 nM, respectively. As to `O=C1N/C(=C\c2ccncc2)C(=O)N1CC1CCCO1` (stereo not drawn) [Compound 60, 5-[1-Pyridin-4-yl-meth-(Z)-ylidene]-3-(tetrahydro-furan-2-ylmethyl)-imidazolidine-2,4-dione], the half-inhibitory concentration (IC50) in experiment [1] was 22 nM; in experiment [2], 81.8 nM. Turning to `CC(C)(O)CN1C(=O)N/C(=C\c2ccncc2)C1=O` [Compound 61, 3-(2-Hydroxy-2-methyl-propyl)-5-[1-pyridin-4-yl-meth-(Z)-ylidene]-imidazolidine-2,4-dione], the results for the IC50 in experiment [1] and in experiment [2] were 25 nM and 288 nM, respectively. For `O=C1N/C(=C\c2ccncc2)C(=O)N1CC1(O)CCCCC1` [Compound 55, 3-(1-Hydroxy-cyclohexylmethyl)-5-[1-pyridin-4-yl-meth-(Z)-ylidene]-imidazotidine-2,4-dione], the half-inhibitory concentration (IC50) came to 55 nM in experiment [1] and 242 nM in experiment [2]. Take `O=C(c1cccc(N2C(=O)N/C(=C\c3ccncc3)C2=O)c1)N1CCOCC1` [Compound 28, 3-[3-(Morpholine-4-carbonyl)-phenyl]-5-[1-pyridin-4-yl-meth-(Z)-ylidene]-imidazolidine-2,4-dione]: the IC50 was 50 nM in experiment [1] and 359 nM in experiment [2]. As to `O=C1N/C(=C\c2ccncc2)C(=O)N1CC1(O)CCC1` [Compound 59, 3-(1-Hydroxy-cyclobutylmethyl)-5-[1-pyridin-4-yl-meth-(Z)-ylidene]-imidazolidine-2,4-dione], the IC50 in experiment [1] was 35 nM; in experiment [2], 98.5 nM. Consider `O=C1N/C(=C\c2ccncc2)C(=O)N1CC(F)(F)F` [Compound 62, 5-[1-Pyridin-4-yl-meth-(Z)-ylidene]-3-(2,2,2-trifluoro-ethyl)-imidazolidine-2,4-dione], for which the 50% inhibitory concentration (IC50) in experiment [1] amounted to 57 nM; in experiment [2], 604 nM.

Consider `O=C1N/C(=C\c2ccncc2)C(=O)N1c1cccnc1` [Compound 39, 3-Pyridin-3-yl-5-[1-pyridin-4-yl-meth-(Z)-ylidene]-imidazolidine-2,4-dione], for which the IC50 in experiment [1] was determined as 61 nM. Regarding `O=C1N/C(=C\c2ccncc2)C(=O)N1c1cccc(C(F)(F)F)c1` [Compound 16, 5-[1-Pyridin-4-yl-meth-(Z)-ylidene]-3-(3-triftuoromethyl-phenyl)-imidazolidine-2,4-dione], the IC50 in experiment [1] turned out to be 77 nM. Turning to `C[C@@H]1CN(C(=O)c2ccc(N3C(=O)N/C(=C\c4ccncc4)C3=O)cc2)C[C@H](C)O1` [Compound 45, 3-[4-((2R,6S)-2,6-Dimethyl-morpholine-4-carbonyl)-phenyl]-5-[1-pyridin-4-yl-meth-(Z)-ylidene]-imidazolidine-2,4-dione], the half-maximal inhibitory concentration (IC50) in experiment [1] is 34 nM. For the molecule `O=C(O)c1cccc(N2C(=O)N/C(=C\c3ccncc3)C2=O)c1` [Compound 27, 3-{2,5-Dioxo-4-[1-pyridin-4-yl-meth-(Z)-ylidene]-imidazolidin-1-yl}-benzoic acid], in experiment [1], the IC50 stood at 56 nM. `O=C(O)Cc1ccc(N2C(=O)N/C(=C\c3ccncc3)C2=O)cc1` [Compound 32, (4-{2,5-Dioxo-4-[1-pyndin-4-yl-meth-(Z)-ylidene]-imidazolidin-1-yl}-phenyl)-acetic acid]: the IC50 in experiment [1] amounted to 38 nM. On the same count and under the same terms, the result for `O=C1N/C(=C\c2ccncc2)C(=O)N1CCNC(=O)C(F)(F)F` [Compound 65, N-(2-{2,5-Dioxo-4-[1-pyridin-4-yl-meth-(Z)-ylidene]-imidazolidin-1-yl}-ethyl)-2,2,2-trifluoro-acetamide] reads 240 nM; that for `CC(C)(C)c1ccc(N2C(=O)N/C(=C\c3ccncc3)C2=O)cc1` [Compound 35, 3-(4-tert-Butyl-phenyl)-5-[1-pyridin-4-yl-meth-(Z)-ylidene]-imidazolidine-2,4-dione], 100 nM. In the case of `CC(C)N1C(=O)N/C(=C\c2ccncc2)C1=O` [Compound 21, 3-Isopropyl-5-[1-pyridin-4-yl-meth-(Z)-ylidene]-imidazolidine-2,4-dione], the IC50 in experiment [1] stood at 40 nM. As to `O=C1N/C(=C\c2ccncc2)C(=O)N1C12CC3CC(CC(C3)C1)C2` [Compound 38, 3-Adamantan-1-yl-5-[1-pyridin-4-yl-meth-(Z)-ylidene]-imidazolidine-2,4-dione], the IC50 in experiment [1] is 400 nM.

In the case of `CC(C)(O)CCN1C(=O)N/C(=C\c2ccncc2)C1=O` [Compound 57, 3-(3-Hydroxy-3-methyl-butyl)-5-[1-pyridin-4-yl-meth-(Z)-ylidene] -imidazolidine-2,4-dione], the IC50 in experiment [1] was 20 nM.

In the case of `CCOC(=O)C1CCN(C(=O)c2ccc(N3C(=O)N/C(=C\c4ccncc4)C3=O)cc2)CC1` [Compound 54, 1-(4-{2,5-Dioxo-4-[1-pyridin-4-yl-meth-(Z)-ylidene]-imidazotidin-l-yl}-benzoyl)-piperidine-4-carboxylic acid ethyl ester], the IC50 in experiment [1] was determined as 36 nM. Consider `O=C1N/C(=C\c2ccncc2)C(=O)N1c1ccc(F)cc1` [Compound 12, 3-(4-Fluoro-phenyl)-5-[1-pyridin-4-yl-meth-(2)-ylidene]-imidazolidine-2,4-dione], for which the IC50 in experiment [1] worked out at 16 nM.

With `CN(C)c1ccc(N2C(=O)N/C(=C\c3ccncc3)C2=O)cc1` [Compound 14, 3-(4-Dimethylamino-phenyl)-5-[1-pyridin-4-yl-meth-(Z)-ylidene]-imidazolidine-2,4-dione], the IC50 in experiment [1] was 90 nM. For the molecule `O=C1N/C(=C\c2ccncc2)C(=O)N1c1ccc(Cl)c(Cl)c1` [Compound 6, 3-(3,4-Dichloro-phenyl)-5-[1-pyridin-4-yl-meth-(Z)-ylidene]-imidazolidine-2,4-dione], in experiment [1], the IC50 worked out at 50 nM. For `O=C(NC1CCCC1)c1ccc(N2C(=O)N/C(=C\c3ccncc3)C2=O)cc1` [Compound 49, N-Cyclopentyl-4-{2,5-dioxo-4-[1-pyridm-4-yl-meth-(Z)-ylidene]-imidazolidm-1-yl}-benzamide], the IC50 in experiment [1] was 50 nM. `O=C1N/C(=C\c2ccncc2)C(=O)N1CC1(CO)CCCC1` [Compound 64, 3-(1-Hydroxymethyl-cyclopentylmethyl)-5-[1-pyridin-4-yl-meth-(Z)-ylidene]-imidazolidine-2,4-dione]: in experiment [1], the IC50 was found to be 16 nM. Same read-out and setting: to `CC(=O)c1cccc(N2C(=O)N/C(=C\c3ccncc3)C2=O)c1` [Compound 13, 3-(3-Acetyl-phenyl)-5-[1-pyridin-4-yl-meth-(Z)-ylidene]-imidazolidine-2,4-dione] belongs 30 nM; to `O=C1N/C(=C\c2ccncc2)C(=O)N1CC1(CO)CCC1` [Compound 63, 3-(1-Hydroxymethyl-cyclobutylmethyl)-5-[1-pyridin-4-yl-meth-(Z)-ylidene]-imidazolidine-2,4-dione], 12 nM.
